In patent US8563714B2, “Bridged spiro [2.4] heptane derivatives as ALX receptor and/or FPRL2 agonists” (Actelion Pharmaceuticals Ltd., priority 2009, dated 2013):

Tests used:
human ALX receptor = molecular target: T1, human ALX receptor (Homo sapiens, UniProt P25090); assay: Intracellular calcium measurements (FLIPR), agonistic activity in HEK293-hALXR-Gα16 cells; format: cell-based; settings: Fluo-4 calcium FLIPR, normalized to WKYMVm 10 nM
T1 construct: expressed in transfected cells; host or cells: HEK293 (HEK293-hALXR-Gα16)
T1 sequence (P25090 1-351): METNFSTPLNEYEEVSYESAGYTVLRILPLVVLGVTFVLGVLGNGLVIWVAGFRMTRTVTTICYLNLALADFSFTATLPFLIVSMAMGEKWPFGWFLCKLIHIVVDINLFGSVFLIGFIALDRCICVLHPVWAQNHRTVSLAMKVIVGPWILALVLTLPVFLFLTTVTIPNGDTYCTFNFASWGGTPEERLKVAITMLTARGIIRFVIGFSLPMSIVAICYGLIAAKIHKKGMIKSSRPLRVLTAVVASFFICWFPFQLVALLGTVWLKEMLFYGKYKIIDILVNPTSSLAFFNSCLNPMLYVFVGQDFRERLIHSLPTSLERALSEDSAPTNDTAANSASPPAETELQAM
In short: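 Agonist-induced calcium flux was recorded by FLIPR (488/540 nm) in HEK293-hALXR-Gα16 cells pre-loaded with Fluo-4 AM (1 μM, 60 min, 37°C). Peak signal above baseline, after subtracting buffer addition, was expressed relative to WKYMVm at 10 nM final.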

human FPRL2 = molecular target: T2, human FPRL2 (Homo sapiens, UniProt P25089); assay: Intracellular calcium measurements (FLIPR), agonistic activity in HEK293-hFPRL2-Gα16 cells; format: cell-based; settings: Fluo-4 calcium FLIPR, normalized to GLY14-Humanin 100 nM
T2 construct: expressed in transfected cells; host or cells: HEK293 (HEK293-hFPRL2-Gα16)
T2 sequence (P25089 1-353): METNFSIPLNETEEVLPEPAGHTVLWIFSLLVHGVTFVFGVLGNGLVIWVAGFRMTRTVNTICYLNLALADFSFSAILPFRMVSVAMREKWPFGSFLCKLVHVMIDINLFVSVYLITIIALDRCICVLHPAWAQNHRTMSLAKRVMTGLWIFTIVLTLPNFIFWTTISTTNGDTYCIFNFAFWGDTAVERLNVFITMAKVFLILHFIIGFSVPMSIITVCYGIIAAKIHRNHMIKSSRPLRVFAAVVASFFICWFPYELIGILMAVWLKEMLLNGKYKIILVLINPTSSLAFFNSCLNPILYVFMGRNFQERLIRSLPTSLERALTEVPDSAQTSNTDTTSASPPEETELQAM
In short: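 Peak values after baseline subtraction are expressed relative to 100 nM Gly14-Humanin; compounds diluted in assay buffer from 10 mM DMSO stocks.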

**Q.** How did the EC50 (human ALX receptor) turn out when O=C(NCCCCN1CCCC1)[C@H]1[C@H](C(=O)NCc2c(F)cc(Br)cc2F)[C@@H]2C=C[C@H]1C21CC1 [Example 317, (5R)—N^5-(4-Bromo-2,6-difluorophenyl-methyl)-(6R)—N^6-(4-pyrrolidin-1-yl-butyl)-(4S,7R)-[4,7-ethenylene-spiro[2.4]heptane]-5,6-dicarboxamide] was run?
**A.** 28 nM

**Q.** And the EC50 (human FPRL2)?
**A.** 44 nM

**Q.** With O=C(NCCCCN1CCCC1)[C@H]1[C@H](C(=O)NCc2ccc(Br)cc2F)[C@@H]2CC[C@H]1C21CC1 [Example 318, (5R)—N^5-(4-Bromo-2-fluorophenyl-methyl)-(6R)—N^6-(4-pyrrolidino-butyl)-(4S,7R)-[4,7-ethylene-spiro[2.4]heptane]-5,6-dicarboxamide] as the compound, how does the EC50 (human ALX receptor) read?
**A.** 13 nM

**Q.** What about the EC50 (human FPRL2) of the same compound?
**A.** 18 nM

**Q.** What does the source list for NCCCCCNC(=O)[C@H]1[C@H](C(=O)NCc2ccc(Br)cc2F)[C@@H]2C=C[C@H]1C21CC1 [Example 319, (5R)—N^5-(4-Bromo-2-fluorophenyl-methyl)-(6R)—N^6-(5-amino-pentyl)-(4S,7R)-[4,7-ethenylene-spiro[2.4]heptane]-5,6-dicarboxamide]?
**A.** EC50 (human ALX receptor): 55 nM; EC50 (human FPRL2): 331 nM

**Q.** What does the source list for NCCCCNC(=O)[C@H]1[C@H](C(=O)NCc2ccc(Br)cc2F)[C@@H]2C=C[C@H]1C21CC1 [Example 320, (5R)—N^5-(4-Bromo-2-fluorophenyl-methyl)-(6R)—N^6-(4-amino-butyl)-(4S,7R)-[4,7-ethenylene-spiro[2.4]heptane]-5,6-dicarboxamide]?
**A.** EC50 (human ALX receptor): 52 nM; EC50 (human FPRL2): 472 nM

**Q.** With O=C(NCCCCN1CCCC1)[C@H]1[C@H](C(=O)NCc2ccc(Br)c(F)c2)[C@@H]2C=C[C@H]1C21CC1 [Example 321, (5R)—N^5-(4-Bromo-3-fluorophenyl-methyl)-(6R)—N^6-(4-pyrrolidino-butyl)-(4S,7R)-[4,7-ethenylene-spiro[2.4]heptane]-5,6-dicarboxamide] as the compound, how does the EC50 (human ALX receptor) read?
**A.** 117 nM

**Q.** And the EC50 (human FPRL2)?
**A.** 15 nM

**Q.** For NCCCCCNC(=O)C1C(C(=O)Nc2ncc(Br)s2)C2C=CC1C21CC1 [Example 322, (5R)—N^5-(5-Bromo-thiazol-2-yl)-(6R)—N^6-(5-amino-pentyl)-(4S,7R)-[4,7-ethenylene-spiro[2.4]heptane]-5,6-dicarboxamide], which EC50 (human ALX receptor) is on record?
**A.** 0.61 nM

**Q.** What about the EC50 (human FPRL2) of the same compound?
**A.** 382 nM

**Q.** For O=C(NC1CCNCC1)[C@H]1[C@H](C(=O)Nc2ncc(Br)s2)[C@@H]2C=C[C@H]1C21CC1 [Example 323, (5R)—N^5-(5-Bromo-thiazol-2-yl)-(6R)—N^6-(piperidin-4-yl)-(4S,7R)-[4,7-ethenylene-spiro[2.4]heptane]-5,6-dicarboxamide], which EC50 (human ALX receptor) is on record?
**A.** 17 nM

**Q.** What about the EC50 (human FPRL2) of the same compound?
**A.** 4690 nM

**Q.** What does the source list for O=C(NCC1CCNCC1)C1C(C(=O)Nc2ncc(Br)s2)C2C=CC1C21CC1 [Example 324, (5R)—N^5-(5-Bromo-thiazol-2-yl)-(6R)—N^6-(piperidin-4-yl-methyl)-(4S,7R)-[4,7-ethenylene-spiro[2.4]heptane]-5,6-dicarboxamide]?
**A.** EC50 (human ALX receptor): 5.7 nM; EC50 (human FPRL2): 1540 nM

**Q.** How did the EC50 (human ALX receptor) turn out when NCC1CCN(C(=O)[C@H]2[C@H](C(=O)Nc3ncc(Br)s3)[C@@H]3C=C[C@H]2C32CC2)CC1 [Example 325, (5R)—N^5-(5-Bromo-thiazol-2-yl)-(6R)—N^6,N^6-(3-(aminomethyl)pentane-1,5-diyl)-(4S,7R)-[4,7-ethenylene-spiro[2.4]heptane]-5,6-dicarboxamide] was run?
**A.** 19 nM

**Q.** What about the EC50 (human FPRL2) of the same compound?
**A.** > 14100 nM

**Q.** NCCCCCNC(=O)[C@H]1[C@H](C(=O)NCc2ccc(Br)cc2F)[C@@H]2CC[C@H]1C21CC1 [Example 326, (5R)—N^5-(4-Bromo-2-fluorophenyl-methyl)-(6R)—N^6-(5-amino-pentyl)-(4S,7R)-[4,7-ethylene-spiro[2.4]heptane]-5,6-dicarboxamide] was tested. Which EC50 (human ALX receptor) did it give?
**A.** 22 nM

**Q.** What about the EC50 (human FPRL2) of the same compound?
**A.** 930 nM

**Q.** What does the source list for O=C(NCCCCN1CCCC1)[C@H]1[C@H](C(=O)NCc2ccc(Br)c(F)c2F)[C@@H]2C=C[C@H]1C21CC1 [Example 327, (5R)—N^5-(4-Bromo-2,3-difluorophenyl-methyl)-(6R)—N^6-(4-pyrrolidino-butyl)-(4S,7R)-[4,7-ethenylene-spiro[2.4]heptane]-5,6-dicarboxamide]?
**A.** EC50 (human ALX receptor): 40 nM; EC50 (human FPRL2): 27 nM

**Q.** What does the source list for O=C(NCCCCN1CCCC1)[C@H]1[C@H](C(=O)NCc2cc(F)c(Br)c(F)c2)[C@@H]2C=C[C@H]1C21CC1 [Example 328, (5R)—N^5-(4-Bromo-3,5-difluorophenyl-methyl)-(6R)—N^6-(4-pyrrolidino-butyl)-(4S,7R)-[4,7-ethenylene-spiro[2.4]heptane]-5,6-dicarboxamide]?
**A.** EC50 (human ALX receptor): 46 nM; EC50 (human FPRL2): 60 nM

**Q.** Which results are given for O=C(NCCCCN1CCCC1)[C@H]1[C@H](C(=O)NCc2cc(F)c(Br)cc2F)[C@@H]2C=C[C@H]1C21CC1 [Example 329, (5R)—N^5-(4-Bromo-2,5-difluorophenyl-methyl)-(6R)—N^6-(4-pyrrolidino-butyl)-(4S,7R)-[4,7-ethenylene-spiro[2.4]heptane]-5,6-dicarboxamide]?
**A.** EC50 (human ALX receptor): 301 nM; EC50 (human FPRL2): 64 nM

**Q.** With O=C(NC1CCNCC1)[C@H]1[C@H](C(=O)Nc2ncc(Br)s2)[C@@H]2CC[C@H]1C21CC1 [Example 330, (5R)—N^5-(5-Bromo-thiazol-2-yl)-(6R)—N^6-(piperidin-4-yl)-(4S,7R)-[4,7-ethylene-spiro[2.4]heptane]-5,6-dicarboxamide] as the compound, how does the EC50 (human ALX receptor) read?
**A.** 24 nM

**Q.** And the EC50 (human FPRL2)?
**A.** 4420 nM

**Q.** What does the source list for CC(C)CNC(=O)[C@H]1[C@H](C(=O)Nc2ncc(Br)s2)[C@@H]2CC[C@H]1C21CC1 [Example 331, (5R)—N^5-(5-Bromo-thiazol-2-yl)-(6R)—N^6-(isobutyl)-(4S,7R)-[4,7-ethylene-spiro[2.4]heptane]-5,6-dicarboxamide]?
**A.** EC50 (human ALX receptor): 82 nM; EC50 (human FPRL2): 8250 nM

**Q.** How did the EC50 (human ALX receptor) turn out when CC(C)(C)OC(=O)NCCCCNC(=O)[C@H]1[C@H](C(=O)Nc2ncc(Br)s2)[C@@H]2CC[C@H]1C21CC1 [Example 332, (5R)—N^5-(5-Bromo-thiazol-2-yl)-(6R)—N^6-(4-tert-butoxycarbonyl-amino-butyl)-(4S,7R)-[4,7-ethylene-spiro[2.4]heptane]-5,6-dicarboxamide] was run?
**A.** 467 nM

**Q.** What about the EC50 (human FPRL2) of the same compound?
**A.** 3540 nM

**Q.** For CC(C)(C)OC(=O)NCCCCCNC(=O)C1C(C(=O)Nc2ncc(Br)s2)C2CCC1C21CC1 [Example 333, (5R)—N^5-(5-Bromo-thiazol-2-yl)-(6R)—N^6-(5-tert-butoxycarbonyl-amino-pentyl)-(4S,7R)-[4,7-ethylene-spiro[2.4]heptane]-5,6-dicarboxamide], which EC50 (human ALX receptor) is on record?
**A.** 519 nM

**Q.** What about the EC50 (human FPRL2) of the same compound?
**A.** 1240 nM

**Q.** NCCCCCNC(=O)[C@H]1[C@H](C(=O)Nc2ncc(Br)s2)[C@@H]2CC[C@H]1C21CC1 [Example 334, (5R)—N^5-(5-Bromo-thiazol-2-yl)-(6R)—N^6-(5-amino-pentyl)-(4S,7R)-[4,7-ethylene-spiro[2.4]heptane]-5,6-dicarboxamide] was tested. Which EC50 (human ALX receptor) did it give?
**A.** 0.45 nM

**Q.** And the EC50 (human FPRL2)?
**A.** 230 nM

**Q.** What does the source list for NCCCCNC(=O)[C@H]1[C@H](C(=O)Nc2ncc(Br)s2)[C@@H]2CC[C@H]1C21CC1 [Example 335, (5R)—N^5-(5-Bromo-thiazol-2-yl)-(6R)—N^6-(4-amino-butyl)-(4S,7R)-[4,7-ethylene-spiro[2.4]heptane]-5,6-dicarboxamide]?
**A.** EC50 (human ALX receptor): 0.5 nM; EC50 (human FPRL2): 1300 nM

**Q.** With NCC1CCN(C(=O)C2C(C(=O)Nc3ncc(Br)s3)C3CCC2C32CC2)CC1 [Example 336, (5R)—N^5-(5-Bromo-thiazol-2-yl)-(6R)—N^6,N^6-(3-(aminomethyl)pentane-1,5-diyl)-(4S,7R)-[4,7-ethylene-spiro[2.4]heptane]-5,6-dicarboxamide] as the compound, how does the EC50 (human ALX receptor) read?
**A.** 6.2 nM

**Q.** And the EC50 (human FPRL2)?
**A.** 1490 nM

**Q.** O=C(NCC1CCNCC1)[C@H]1[C@H](C(=O)Nc2ncc(Br)s2)[C@@H]2CC[C@H]1C21CC1 [Example 337, (5R)—N^5-(5-Bromo-thiazol-2-yl)-(6R)—N^6-(piperidin-4-yl-methyl)-(4S,7R)-[4,7-ethylene-spiro[2.4]heptane]-5,6-dicarboxamide] was tested. Which EC50 (human ALX receptor) did it give?
**A.** 7.3 nM

**Q.** And the EC50 (human FPRL2)?
**A.** 1210 nM

**Q.** Which results are given for O=C(NCCCCN1CCCC1)[C@H]1[C@H](C(=O)Nc2cnc(Br)c(F)c2)[C@@H]2C=C[C@H]1C21CC1 [Example 338, (5R)—N^5-(2-Bromo-3-fluoro-pyridin-5-yl)-(6R)—N^6-(4-pyrrolidino-butyl)-(4S,7R)-[4,7-ethenylene-spiro[2.4]heptane]-5,6-dicarboxamide]?
**A.** EC50 (human ALX receptor): 168 nM; EC50 (human FPRL2): 139 nM

**Q.** With CC(C)(C)C1CCC(NC(=O)C2C(C(=O)NCCCCN3CCCC3)C3C=CC2C32CC2)CC1 (stereo not drawn) [Example 342, (5R*)—N^5-(4-tert-Butyl-cyclohexyl)-(6R*)—N^6-(4-pyrrolidino-butyl)-(4S*,7R*)-[4,7-ethenylene-spiro[2.4]heptane]-5,6-dicarboxamide] as the compound, how does the EC50 (human ALX receptor) read?
**A.** > 2390 nM

**Q.** What about the EC50 (human FPRL2) of the same compound?
**A.** 100 nM
